The values below come from patent US20250049078A1, “ECO-FRIENDLY ADDITIVES FOR HAY AND SILAGE INOCULANTS MINIMIZING GREENHOUSE GAS EMISSIONS” (Kansas State University Research Foundation, priority 2021, published 2025).

Test [1] deals with N2O production from simulated silage (denitrifiers). Put plainly: N2O production from alfalfa mini silos (simulated silage) with different treatments, fifth part of the study. The conditions noted are these: for effect on N2O production: amendment 0.1% (w/w), P<0.001. The protocol:
In a second part of the study, N2O and CH4 production from forage silos were studied. The forage used was second cut alfalfa (HVX MegaTron) harvested at the early flower stage. The mini silos consisted of 1 L glass jars connected to a 1-L Tedlar bag. The forage was chopped into 2-3 cm pieces with a laboratory chopper and ensiled in laboratory mini silos at a bulk density of 700 kg/m^3 (700 grams per silo). The experiments were performed in an incubator at 30° C. in the dark, and the produced gas volume and composition were measured periodically for 35 days.
(§1) The treatments compared in this research consisted of (1) no treatment, (2) commercial silage inoculant (Pioneer® inoculant), (3) inoculant+chlorate (0.1%, w/w), and (4) inoculant+acetate (0.1%, w/w). Three replicates for each treatment were performed.
In the fifth part of the study, three replicates for each treatment were added to forage silos prepared as described in paragraph [0054].

Test [2] relates to N2O production from corn, alfalfa, and sorghum silages (denitrifiers). Briefly: N2O production from laboratory mini silos (simulated silage) with different treatments, fourth part of the study. The conditions noted are these: for reduction of N2O production: inoculant + additive 0.1% (w/w), corn, alfalfa, sorghum silages, FIG. 4A, three replicates. The method, then: GHG production from simulated silage. Laboratory experiments were performed to estimate the GHG emission potentials from silage conservation (i.e. anaerobic conservation). In a first part of the study, N2O production from forage silos was studied. The forages used were corn, alfalfa, and sorghum. The mini silos consisted of 1 L glass jars connected to a 1-L Tedlar bag. The forage was chopped into 2-3 cm pieces with a laboratory chopper and ensiled in laboratory mini silos at a bulk density of 700 kg/m^3 (700 grams per silo). The experiments were performed in an incubator at 30° C. in the dark, and the produced gas volume and composition were measured periodically for 30 days.
as §1
In the fourth part of the study, three replicates for each treatment were added to forage silos prepared as described in paragraph [0052].

Turning to `CC(=O)O` [acetate], in test [1] (acetate as a sodium salt, 1 g per kg-forage, preliminary study), the “reduction of total amount of N2O” value is on record as 25%. Also, the “effect on N2O production” value in test [1] (preliminary study) is given as “significantly repressed”. Besides, the “reduction of N2O production” value in test [1] (inoculant + 0.1% (w/w) acetate, alfalfa silage, P<0.01, FIG. 4C) was 25%; in test [2], “up to 25%”.

For the molecule `[O-][Cl+2]([O-])O` [chlorate], in test [1] (preliminary study), the “effect on N2O production” value is recorded as “significantly repressed”. Besides, the “reduction of N2O production (fold)” value in test [1] (inoculant + 0.1% (w/w) chlorate, alfalfa silage, FIG. 4C) is reported as “more than ten times”. For the same molecule, the “reduction of N2O production” value in test [2] was “up to 99%”. Moreover, the “reduction of N2O” value in test [2] (lower concentrations up to 0.01% (w/w), alfalfa silage, FIG. 4B) is listed as “higher than 90%”.
